Measured values published in patent publication US20240294988A1, “METHODS OF DETERMINING RESPONSIVENESS TO CHEMOTHERAPEUTIC COMPOUNDS FOR CANCER THERAPY” (Northwestern University, priority 2021, published 2024).
Entries after “also recorded” stand apart in the source; their conditions may differ.

Columns and labels:
H4 = assay: Cell viability assay (PTX dose response, CellTiter Glo) in glioma cell lines; type: cell-based, human; details: H4 glioma cell line, PTX dose response curve
Method: GBM cells were seeded at a density of 5000 cells per well in a 96 well plate. One day after seeding, cells were checked for attachment and confluence (60-70%). […] 72 hours later cell viability was determined by CellTiter Glo (Promega).

[1] = pharmacologic data and clinical investigations; cited from earlier work
[2] = mice, systemic delivery of ABX; cited from earlier work
[3] = tested on: H4 SSR3 KO and control cells; assay: Microtubule polymerization, alpha-tubulin immunofluorescence in H4 cells; type: cell-based, human; details: PTX 0.5 μM, 48 h
Method: H4 SSR3 knockout and non-targeting control cells were grown on glass coverslips. […] The cells were then stained with α-tubulin and SSR3 antibodies at 1:100 dilution and the images were acquired on the Nikon A1 (C) confocal microscope. Microtubule bundles per cell cluster were counted for the analysis.

For `CC(=O)O[C@H]1C(=O)[C@@]2(C)[C@H]([C@H](OC(=O)c3ccccc3)[C@]3(O)C[C@H](OC(=O)[C@H](O)[C@@H](NC(=O)c4ccccc4)c4ccccc4)C(C)=C1C3(C)C)[C@]1(OC(C)=O)CO[C@@H]1C[C@@H]2O` [PTX, Paclitaxel], which “sensitivity to PTX among glioma cell lines” value (H4) is on record?
Its value is “most sensitive; also recorded: highest degree of sensitivity”.

And the “crossing of the BBB” value [1]?
Its value is “does not cross the BBB”.

And the “enhancement of brain penetration of PTX by ultrasound therapy” value [2]?
The value was 3-5 fold.

And the “effect on microtubule polymerization” value [3]?
Its value is “stabilization of microtubule polymerization”.
